# Experimental data taken from US4758580A, “Inhibiting growth of tumors with certain substituted phenoxy dimethyl alkanoic acids, esters or salts” (Yamanouchi Pharmaceutical Co., Ltd., priority 1985, dated 1988).
# Legend:
# MM-46 ascites tumor = test: Anti-tumor test against mice mammary cancer MM-46 ascites tumor; assay type: in vivo, C3 H/He/CRJ mice
# Description: MM-46 tumor cells, 1×10^6, on Day 7 after intraperitoneal transplantation to C3 H/He/CRJ mice (5 week age, male) of 10 mice each being grouped in one. The active component was intraperitoneally administered in a definite dose 24 hours after the transplantation according to the schedule shown in Table 5. An effect of tumor growth inhibition was evaluated by a percentage of the median survival time of the administered group versus that of the control group, according to the following equation.
# T: median survival day of the administered group
# C: median survival day of the control group
# MH 134 (liver cancer) = test: In vitro cytotoxicity against mouse tumor cells, MH 134; assay type: cell-based; details: 72 h, MH 134, 3 days, 37° C., trypan blue, read-out: IC50
# Description: A suspension of cells in a culture medium was transferred into wells in a microplate in an amount of 1×10^5 cells/wall. Test sample diluted with a culture medium was added to the suspension in each well, and the mixture was incubated on the medium at 37° C. for 3 days in atmosphere of air containing 5% carbon dioxide. Thereafter, the incubated cells were recovered from the microplate and the number of live cells was counted by the dye exclusion test using a 0.5% solution of trypan blue and by using a hemocytomer.
# Meth A solid tumor = test: Anti-tumor test against methyl cholanthrene-induced Meth A solid tumor; assay type: in vivo, Balb/C/SLC mice; details: 1-8 Days
# Description: Meth A tumor cells, 1.5×10^6, on Day 7 after intraperitoneal transplantation to Balb/C/SLC mice were subcutaneously transplanted to the left abdomen of Balb/C/SLC mice (5 week age, male) of 8 mice each being grouped in one (16 mice for the control group). The active component was orally administered in a definite dose 24 hours after the transplantation according to the schedule shown in Table 3. An effect of tumor growth inhibition was compared by measuring the long diameter and short diameter of the tumor on Days 15 and 21 after the transplantation, calculating the tumor size (mm^2) and determining a tumor growth inhibition rate of the active component-administered group to the control group.
# [1] = system: KB (nasal cavity & pharynx cancer); test: In vitro cytotoxicity against human tumor cells, KB; assay type: cell-based; details: 72 h, KB, 3 days, 37° C., crystalviolet, read-out: IC50
# Description: A suspension of cells in a culture medium was transferred into wells in a microplate in an amount of 5×10^4 cells/well. Test sample diluted with a culture medium was added to the suspension in each well, and the mixture was incubated at 37° C. for 3 days in an atmosphere of air containing 5% carbon dioxide. After skimming, sticking cells were dyed which crystalviolet for 10 minutes. After washing with water, 1% sodium lauryl sulfate solution was added to each well, and the absrobancy (optical density) at […] was measured. "% inhibition" was calculated from the following equation. [formula]
# Ehrlich solid tumor = test: Anti-tumor test against Ehrlich solid tumor; assay type: in vivo, ddY/SLC mice
# Description: Ehrlich tumor cells, 2×10^6, on Day 7 after intraperitoneal transplantation to ddY/SLC mice were subcutaneously transplanted in the left abdomen of ddY/SLC mice (5 week age, male), 10 each grouped into one. The active component was intraperitoneally or orally administered in a definite dose 24 hours after the transplantation, according to the schedule shown in Table 1 (A), (B) or (C). An effect of inhibiting growth of tumor was compared, by measuring the long diameter and short diameter of the tumor on 14, 20 and 21 Days after the transplantation, calculating the tumor size (mm^2) and determining a tumor growth inhibition rate of the group administered with the active component to the control group according to the following equation:
# Growth inhibition rate (%)=(C-T)/C×100
# T: means tumor size (mm^2) in the active component-administered group
# C: mean tumor size (mm^2) in the control group
# [2] = 6.25 mg/kg i.p., 1, 2, 3, 4 and 6 Days
# [3] = 12.5 mg/kg i.p., 1, 2, 3, 4 and 6 Days
# [4] = 25 mg/kg i.p., 1, 2, 3, 4 and 6 Days
# [5] = 50 mg/kg i.p., 1, 2, 3, 4 and 6 Days
# [6] = 100 mg/kg i.p., 1, 2, 3, 4 and 6 Days
# [7] = 200 mg/kg i.p., 1, 2, 3, 4 and 6 Days
# [8] = Day 14, 60 mg/kg i.p., Days 1, 2, 3, 4, 7, 8, 10 & 13
# [9] = Day 14, 100 mg/kg i.p., Days 1, 3, 7, 10, 13 & 14
# [10] = Day 14, 200 mg/kg p.o., Days 1, 2, 3, 4, 7, 8, 10 & 13
# [11] = Day 21, 60 mg/kg i.p., Days 1, 2, 3, 4, 7, 8, 10 & 13
# [12] = Day 21, 100 mg/kg i.p., Days 1, 3, 7, 10, 13 & 14
# [13] = Day 21, 200 mg/kg p.o., Days 1, 2, 3, 4, 7, 8, 10 & 13
compound,measurement,setting,value
CCOC(=O)C(C)(C)CCCCOc1ccc(OCCCCCn2ccnc2)cc1 [Compound B],Median Survival Day,MM-46 ascites tumor; [2],7.0 days
same,Survivors (90 days),MM-46 ascites tumor; [2],0/10
same,T/C (median survival),MM-46 ascites tumor; [2],93.3%
same,Median Survival Day,MM-46 ascites tumor; [3],7.0 days
same,Survivors (90 days),MM-46 ascites tumor; [3],0/10
same,T/C (median survival),MM-46 ascites tumor; [3],93.3%
same,Median Survival Day,MM-46 ascites tumor; [4],8.5 days
same,Survivors (90 days),MM-46 ascites tumor; [4],0/10
same,T/C (median survival),MM-46 ascites tumor; [4],113.3%
same,Median Survival Day,MM-46 ascites tumor; [5],34.0 days
same,Survivors (90 days),MM-46 ascites tumor; [5],0/10
same,T/C (median survival),MM-46 ascites tumor; [5],453.3%
same,Median Survival Day,MM-46 ascites tumor; [6],49.0 days
same,Survivors (90 days),MM-46 ascites tumor; [6],1/10
same,T/C (median survival),MM-46 ascites tumor; [6],653.3%
same,Median Survival Day,MM-46 ascites tumor; [7],18.5 days
same,Survivors (90 days),MM-46 ascites tumor; [7],0/10
same,T/C (median survival),MM-46 ascites tumor; [7],246.7%
same,IC50,MH 134 (liver cancer),2.2 µg/mL
same,Growth Inhibition Rate,"Meth A solid tumor; Day 15, 100 mg/kg p.o.",27.5%
same,Size of Tumor,"Meth A solid tumor; Day 15, 100 mg/kg p.o.",163.0 ± 41.9 mm^2
same,Growth Inhibition Rate,"Meth A solid tumor; Day 15, 200 mg/kg p.o.",46.4%
same,Size of Tumor,"Meth A solid tumor; Day 15, 200 mg/kg p.o.",124.5 ± 60.2 mm^2
same,Growth Inhibition Rate,"Meth A solid tumor; Day 15, 400 mg/kg p.o.",53.6%
same,Size of Tumor,"Meth A solid tumor; Day 15, 400 mg/kg p.o.",104.4 ± 56.9 mm^2
same,Growth Inhibition Rate,"Meth A solid tumor; Day 21, 100 mg/kg p.o.",18.8%
same,Size of Tumor,"Meth A solid tumor; Day 21, 100 mg/kg p.o.",387.9 ± 101.8 mm^2
same,Growth Inhibition Rate,"Meth A solid tumor; Day 21, 200 mg/kg p.o.",39.2%
same,Size of Tumor,"Meth A solid tumor; Day 21, 200 mg/kg p.o.",290.8 ± 100.9 mm^2
same,Growth Inhibition Rate,"Meth A solid tumor; Day 21, 400 mg/kg p.o.",41.6%
same,Size of Tumor,"Meth A solid tumor; Day 21, 400 mg/kg p.o.",279.3 ± 152.1 mm^2
same,IC50,[1],1.15 µg/mL
same,Growth Inhibition Rate,Ehrlich solid tumor; [8],25.7%
same,Size of Tumor,Ehrlich solid tumor; [8],107.3 ± 54.6 mm^2
same,Growth Inhibition Rate,Ehrlich solid tumor; [9],51.4%
same,Size of Tumor,Ehrlich solid tumor; [9],70.1 ± 33.8 mm^2
same,Growth Inhibition Rate,Ehrlich solid tumor; [10],66.3%
same,Size of Tumor,Ehrlich solid tumor; [10],48.7 ± 44.3 mm^2
same,Growth Inhibition Rate,Ehrlich solid tumor; [11],37.0%
same,Size of Tumor,Ehrlich solid tumor; [11],323.3 ± 163.4 mm^2
same,Growth Inhibition Rate,Ehrlich solid tumor; [12],38.5%
same,Size of Tumor,Ehrlich solid tumor; [12],315.3 ± 235.3 mm^2
same,Growth Inhibition Rate,Ehrlich solid tumor; [13],78.7%
same,Size of Tumor,Ehrlich solid tumor; [13],109.2 ± 133.5 mm^2
